Experimental data published in US7888390B2, “Preparation of platinum(II) complexes” (Platco Technologies (Proprietary) Limited, priority 2003, dated 2011).

Tests used:
Type in all cases: cell-based
cervical cancer cells = assay: Anticancer testing, inhibition of cervical cancer cells, 5% foetal calf serum medium; settings: 5% foetal calf serum as medium
breast cancer = assay: Anticancer testing, inhibition on breast cancer, medium containing 10 mM glutathione; settings: 100 μM solution
colon cancer cells = assay: Anticancer testing, inhibition of colon cancer cells, medium containing 10 mM glutathione; settings: 100 μM

SMILES	percentage inhibition on cervical cancer cells (cervical cancer cells; 10 μM solution)	percentage inhibition on cervical cancer cells (cervical cancer cells; 100 μM solution)	inhibition on breast cancer (breast cancer)	inhibition of colon cancer cells (colon cancer cells)
CSCCCc1nccn1C.O=C([O-])C(=O)[O-].[Pt+2] [Example 6, oxalato(1-methyl-2-methylthiopropylimidazole)platinum(II)]	88.6%	97.7%	72%	85%
N.N.[Cl][Pt][Cl] [cisplatin]	85.4%	95.3%	10%	48%
